In patent publication US20050095240A1, “NaCT as a target for lifespan expansion and weight reduction” (Medical College of Georgia Research, priority 2002, published 2005):

How the values were obtained:
[1] = molecular target: T1, NaCT in Huh-7 cells (Homo sapiens, UniProt Q86YT5); assay: Citrate uptake in Huh-7 cells (constitutively expressed NaCT); assay type: cell-based; conditions: Li+ 2 mM
T1 construct: the effect of Li^+ on constitutively expressed NaCT in human liver cells was studied; endogenous in cells; host or cells: Huh-7 (gift of Dr. Barrie P. Bode)
Procedure: (§1) Uptake measurement in human liver cell lines. The human liver cell lines (HepG2 and Huh-7) were cultured to confluency in 24-well culture plates using appropriate culture medium. The HepG2 cell line was obtained from American Type Culture Collection (Manasses, Va.). The Huh-7 cell line (Bode et al., (2002) Am. J. Physiol. 283, G1062-G1073) was provided by Dr. Barrie P. Bode (St. Louis University, St. Louis, Mo.). Uptake measurements in monolayer cultures of these cells were measured as described above for the heterologously expressed NaCTs.

[2] = molecular target: T2, NaCT in HepG2 cells (Homo sapiens, UniProt Q86YT5); assay: Citrate uptake in HepG2 cells (constitutively expressed NaCT); assay type: cell-based; conditions: Li+ 2 mM, valproate 0.6 μM, carbamazepine 50 μM
T2 construct: the effect of Li^+ on constitutively expressed NaCT in human liver cells was studied; host or cells: HepG2
Procedure: as §1

[3] = molecular target: T3, mouse NaCT (Mus musculus, UniProt Q67BT3); assay: Transport via mouse NaCT expressed in HRPE cells; assay type: cell-based; conditions: Li+ 2 mM, valproate 0.6 μM, carbamazepine 50 μM
T3 sequence (Q67BT3 1-572): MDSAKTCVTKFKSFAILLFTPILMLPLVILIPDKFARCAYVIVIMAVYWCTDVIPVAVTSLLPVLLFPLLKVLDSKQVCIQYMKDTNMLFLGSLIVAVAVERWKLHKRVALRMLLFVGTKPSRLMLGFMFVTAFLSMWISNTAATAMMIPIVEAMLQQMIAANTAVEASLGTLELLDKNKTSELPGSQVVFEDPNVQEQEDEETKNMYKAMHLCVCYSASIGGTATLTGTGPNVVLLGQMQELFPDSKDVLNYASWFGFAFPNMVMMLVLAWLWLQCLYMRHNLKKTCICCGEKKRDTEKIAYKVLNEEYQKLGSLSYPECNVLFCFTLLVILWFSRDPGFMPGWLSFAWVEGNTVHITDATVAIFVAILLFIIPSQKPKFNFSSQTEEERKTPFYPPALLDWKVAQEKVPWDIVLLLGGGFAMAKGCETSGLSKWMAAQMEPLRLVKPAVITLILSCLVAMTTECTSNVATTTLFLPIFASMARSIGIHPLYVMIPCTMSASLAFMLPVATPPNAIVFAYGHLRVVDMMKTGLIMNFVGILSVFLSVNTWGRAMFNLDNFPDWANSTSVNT

[4] = patients under treatment; cited from earlier work
[5] = molecular target: chimeric transporter (human NaCT 496-516 replaced with rat NaCT 500-520) (Homo sapiens, UniProt Q86YT5, F500L/T516A); assay: Citrate uptake via human/rat chimeric NaCT in HRPE cells; assay type: cell-based; conditions: Li+ 10 mM; citrate 20 μM
[6] = molecular target: zebrafish NaCT (Danio rerio, UniProt A0A2R8QQN0, K78Q); assay: Citrate uptake via zebrafish NaCT expressed in HRPE cells; assay type: cell-based
[7] = molecular target: T4, ceNaCT (Caenorhabditis elegans, UniProt P32739, I91S/L182M); assay: Uptake via ceNaCT expressed in HRPE cells; conditions: Li+ 2 mM, valproate 0.6 μM, carbamazepine 50 μM
T4 sequence (P32739 1-551 I91S/L182M): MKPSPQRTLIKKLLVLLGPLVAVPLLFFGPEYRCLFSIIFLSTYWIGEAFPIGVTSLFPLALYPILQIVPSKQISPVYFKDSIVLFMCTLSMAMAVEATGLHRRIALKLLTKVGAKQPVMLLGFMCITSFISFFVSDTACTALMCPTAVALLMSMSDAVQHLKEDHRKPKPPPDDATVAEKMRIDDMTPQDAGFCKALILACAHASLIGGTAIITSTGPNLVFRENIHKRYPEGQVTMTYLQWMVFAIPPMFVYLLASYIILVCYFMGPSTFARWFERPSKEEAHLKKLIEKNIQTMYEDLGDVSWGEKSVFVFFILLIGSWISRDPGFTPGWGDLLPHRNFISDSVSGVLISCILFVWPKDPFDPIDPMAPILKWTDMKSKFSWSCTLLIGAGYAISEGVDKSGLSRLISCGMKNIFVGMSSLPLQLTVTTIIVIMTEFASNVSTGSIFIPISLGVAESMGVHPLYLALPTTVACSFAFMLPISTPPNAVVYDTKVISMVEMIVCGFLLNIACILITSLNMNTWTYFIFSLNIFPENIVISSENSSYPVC

[8] = molecular target: T5, rat NaCT (Rattus norvegicus, UniProt Q8CJ44); assay: Uptake via rat NaCT expressed in HRPE cells; assay type: cell-based
T5 sequence (Q8CJ44 1-572): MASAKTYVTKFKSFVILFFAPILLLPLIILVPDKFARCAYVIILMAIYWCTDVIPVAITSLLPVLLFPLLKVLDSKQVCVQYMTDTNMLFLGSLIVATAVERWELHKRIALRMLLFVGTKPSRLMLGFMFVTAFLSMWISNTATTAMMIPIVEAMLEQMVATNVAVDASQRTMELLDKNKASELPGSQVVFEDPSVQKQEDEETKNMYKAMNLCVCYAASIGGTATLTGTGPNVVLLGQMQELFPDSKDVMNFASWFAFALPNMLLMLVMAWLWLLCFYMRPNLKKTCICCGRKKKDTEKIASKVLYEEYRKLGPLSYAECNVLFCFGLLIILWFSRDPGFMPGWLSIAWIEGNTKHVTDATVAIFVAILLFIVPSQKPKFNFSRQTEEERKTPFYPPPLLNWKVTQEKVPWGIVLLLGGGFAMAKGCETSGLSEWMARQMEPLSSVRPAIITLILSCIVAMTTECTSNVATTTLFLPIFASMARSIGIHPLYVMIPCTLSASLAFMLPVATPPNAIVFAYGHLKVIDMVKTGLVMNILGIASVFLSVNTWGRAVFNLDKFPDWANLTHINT

[9] = molecular target: Phe→Leu mutant of human NaCT (Homo sapiens, UniProt Q86YT5, F500L); assay: Citrate uptake via Phe→Leu mutant of human NaCT in HRPE cells; assay type: cell-based; conditions: citrate 20 μM; increasing Li+
[10] = system: HepG2 cells; assay: Incorporation of citrate and acetate into cellular lipids; assay type: cell-based, human; conditions: 24 hours
Excerpt: The cellular lipids were then extracted by n-hexane/isopropanol (3:2, v/v) as described by Schamagl et al. (Scharnagl et al., (2001) Biochem. Pharmacol. 62, 1545-1555).

[11] = molecular target: human NaCT (Homo sapiens, UniProt Q86YT5); assay: Uptake via human NaCT expressed in HRPE cells; assay type: cell-based
[12] = substrate: O=C(O)CC(O)(CC(=O)O)C(=O)O; assay: cells, lysate or membranes; conditions: other: pH 7.5, 37.0 °C
[13] = Li+ 2 mM, valproate 0.6 μM, carbamazepine 50 μM

Chain of human NaCT (Q86YT5 whole entry): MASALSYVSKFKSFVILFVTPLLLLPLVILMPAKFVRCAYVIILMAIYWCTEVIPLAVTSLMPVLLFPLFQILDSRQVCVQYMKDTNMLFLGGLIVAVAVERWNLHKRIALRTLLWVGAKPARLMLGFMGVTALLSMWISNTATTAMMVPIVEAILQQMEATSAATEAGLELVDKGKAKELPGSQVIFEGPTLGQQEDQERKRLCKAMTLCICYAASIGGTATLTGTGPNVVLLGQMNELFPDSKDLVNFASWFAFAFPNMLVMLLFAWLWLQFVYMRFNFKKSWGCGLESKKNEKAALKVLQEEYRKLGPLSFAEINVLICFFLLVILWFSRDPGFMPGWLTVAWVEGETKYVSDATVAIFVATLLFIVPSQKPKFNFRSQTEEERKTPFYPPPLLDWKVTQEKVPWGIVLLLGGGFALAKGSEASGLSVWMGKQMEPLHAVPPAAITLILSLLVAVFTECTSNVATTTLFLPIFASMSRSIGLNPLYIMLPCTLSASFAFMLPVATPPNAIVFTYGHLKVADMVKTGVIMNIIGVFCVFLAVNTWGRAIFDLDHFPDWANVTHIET
Chain of zebrafish NaCT (A0A2R8QQN0 2-582 K78Q): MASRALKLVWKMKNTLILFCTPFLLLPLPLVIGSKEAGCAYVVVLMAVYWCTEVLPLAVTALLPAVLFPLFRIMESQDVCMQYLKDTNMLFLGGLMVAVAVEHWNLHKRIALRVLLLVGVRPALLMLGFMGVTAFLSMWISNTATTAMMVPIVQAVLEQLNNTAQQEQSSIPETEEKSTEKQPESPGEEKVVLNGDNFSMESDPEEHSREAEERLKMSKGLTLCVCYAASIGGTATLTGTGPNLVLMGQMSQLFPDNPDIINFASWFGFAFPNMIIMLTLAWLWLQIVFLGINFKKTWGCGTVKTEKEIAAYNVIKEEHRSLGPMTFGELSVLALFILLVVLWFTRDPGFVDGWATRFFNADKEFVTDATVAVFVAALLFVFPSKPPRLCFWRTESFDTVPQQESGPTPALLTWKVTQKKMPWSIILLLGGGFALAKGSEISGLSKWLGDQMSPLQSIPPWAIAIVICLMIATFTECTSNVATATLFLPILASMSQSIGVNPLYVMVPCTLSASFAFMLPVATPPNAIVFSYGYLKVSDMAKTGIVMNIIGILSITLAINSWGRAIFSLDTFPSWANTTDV
T2 sequence (Q86YT5 whole entry): as the sequence (Q86YT5 whole entry) above
T1 sequence (Q86YT5 whole entry): as above
Chain of chimeric transporter (human NaCT 496-516 replaced with rat NaCT 500-520) (Q86YT5 whole entry F500L/T516A): as the sequence (Q86YT5 whole entry) above, with F500L, T516A counted along it
Chain of Phe→Leu mutant of human NaCT (Q86YT5 whole entry F500L): as the sequence (Q86YT5 whole entry) above, with F500L counted along it

Q: With `[Li+]` [Li^+, lithium] as the molecule, how does the “Citrate uptake, Huh-7 cells” value [1] read?
A: 20.0 ± 0.5 pmol/min/mg protein

Q: And the “Citrate uptake, Huh-7 cells, percent of corresponding control” value [1]?
A: 196%

Q: What about the “Citrate uptake, HepG2 cells” value [2] of the same molecule?
A: 21.2 ± 0.6 pmol/min/mg protein

Q: What about the “Citrate uptake, HepG2 cells, percent of corresponding control” value [2] of the same molecule?
A: 222%

Q: And the “Citrate uptake, mNaCT” value [3]?
A: 29.4 ± 1.7 pmol/10^6 cells/min

Q: What about the “Citrate uptake, mNaCT, percent of corresponding control” value [3] of the same molecule?
A: 69%

Q: And the “Plasma concentrations / therapeutic plasma levels in humans” value [4]?
A: 800 to 2000 µM

Q: And the “Effect of Li+ on activity of the chimeric transporter” value [5]?
A: not affected

Q: What about the “Citrate uptake, zfNaCT” value [6] of the same molecule?
A: 298.0 ± 12.6 (61) pmol/10^6 cells/min

Q: What about the “Citrate uptake, zfNaCT, percent of corresponding control” value [6] of the same molecule?
A: 298.0 ± 12.6 (61) percent

Q: What about the “Citrate uptake, ceNaCT” value [7] of the same molecule?
A: 43.6 ± 0.8 pmol/10^6 cells/min

Q: What about the “Citrate uptake, ceNaCT, percent of corresponding control” value [7] of the same molecule?
A: 100%

Q: And the “Citrate uptake, rNaCT” value [8, 13]?
A: 92.3 ± 8.4 pmol/10^6 cells/min

Q: What about the “Citrate uptake, rNaCT, percent of corresponding control” value [8, 13] of the same molecule?
A: 62%

Q: And the IC50 ([8]; read-out: IC50 for inhibition of citrate uptake via rat NaCT, citrate 20 μM)?
A: 2100 ± 800 µM

Q: What about the “Effect of Li+ on transport function of the mutant” value [9] of the same molecule?
A: not affected

Q: And the “Stimulation of incorporation of [^14C]citrate into lipid fraction” value ([10]; Li+ 2 mM)?
A: 2.6±0.1 fold

Q: And the “Effect on incorporation of [^14C]acetate into lipids” value ([10]; Li+ 2 or 10 mM)?
A: did not have any effect

Q: And the “Increase of affinity for citrate” value ([11]; 10 mM Li+)?
A: approximately 7 fold

Q: What about the “Stimulation of human NaCT by Li+” value ([11]; 10 mM Li+, 60 mM Na+) of the same molecule?
A: 7 fold

Q: What about the “Stimulation of human NaCT by Li+” value ([11]; 10 mM Li+, 140 mM Na+) of the same molecule?
A: 3 fold

Q: What about the “Citrate uptake, hNaCT” value [11, 13] of the same molecule?
A: 105.2 ± 11.6 pmol/10^6 cells/min

Q: And the “Citrate uptake, hNaCT, percent of corresponding control” value [11, 13]?
A: 203%

Q: What about the “Stimulation of human NaCT activity” value ([11]; Li+ 2.5 mM) of the same molecule?
A: 2.4 fold

Q: And the EC50 ([11]; read-out: Concentration of Li+ needed for half-maximal stimulation of citrate uptake, citrate 20 μM)?
A: 2100 ± 700 µM

B1: ceNaCT (Caenorhabditis elegans; I91S/L182M) (protein)
chain: T4 sequence (P32739 1-551 I91S/L182M)
Q: Which Km [12] does the source give for B1 here?
A: 76 ± 14 µM
